According to US5739278A, “Compositions for protein tyrosine phosphatases” (University of Washington, priority 1995, dated 1998):

Assays:
Assay in all cases: Phosphatase assay with ENDY(P)INASL as substrate
Format in all cases: biochemical
[1] = molecular target: T1, TC.PTP (Homo sapiens, UniProt P17706); conditions: TC.PTP
T1 construct: made in house; host or cells: Sf9 cells (baculovirus)
T1 sequence (P17706 1-415): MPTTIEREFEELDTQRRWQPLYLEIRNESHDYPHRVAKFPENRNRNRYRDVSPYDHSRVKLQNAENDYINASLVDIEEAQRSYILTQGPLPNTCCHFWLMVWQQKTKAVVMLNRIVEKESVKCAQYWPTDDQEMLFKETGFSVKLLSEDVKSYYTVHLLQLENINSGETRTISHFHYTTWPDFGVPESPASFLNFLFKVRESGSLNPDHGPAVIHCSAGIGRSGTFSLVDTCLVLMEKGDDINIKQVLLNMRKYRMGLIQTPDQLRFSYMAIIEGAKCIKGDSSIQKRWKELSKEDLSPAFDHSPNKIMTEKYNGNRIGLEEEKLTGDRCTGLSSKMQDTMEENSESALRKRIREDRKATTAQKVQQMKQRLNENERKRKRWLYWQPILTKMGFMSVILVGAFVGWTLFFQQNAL
Description: (§1) The tyrosine phosphatases TC.PTP, TCΔC11.PTP, and RPTPα were purified from infected Sf9 cells as described recently (Zander et al., Biochemistry 30: 6964-6970, 1991; Daum et al., J. Biol. Chem. 266: 12211-12215, 1991). The 37 kDa form of PTP1B and CD45 were purified from placenta and spleen, respectively (according to Tonks et al., J. Biol. Chem. 263: 6722-6730, 1988; Tonks et al., Biochemistry 27: 8695-8701, 1988).
(§2) Phosphatase assays with ENDY(P)INASL were performed in buffer M6. Aliquots of 30 μl or 60 μl containing the phosphopeptide, the phosphatase (-beads) and effectors were incubated for 10 minutes at 30° C. The reaction was stopped by adding 200 μl of a suspension of 10% activated, acid-washed Norit A charcoal (v/v) in 0.9N HCl, 0.1M pyrophosphate and 2 mM NaH2 PO4 (according to Streuli et al., Proc. Natl. Acad. Sci. USA 86: 8698-8702, 1989). The mixture was cleared by 10-minute centrifugation and the radioactivity of 150 μl of the supernate was determined. Assays with MBP and RCML were performed as described in Tonks et al., J. Biol. Chem. 263: 6722-6730, 1988. Protein concentration was determined with BSA as standard (Bradford, Anal. Biochem. 72: 248-254, 1976).

[2] = molecular target: T2, RPTPα (Homo sapiens, UniProt P18433)
T2 construct: made in house; host or cells: Sf9 cells (baculovirus)
T2 sequence (P18433 20-802): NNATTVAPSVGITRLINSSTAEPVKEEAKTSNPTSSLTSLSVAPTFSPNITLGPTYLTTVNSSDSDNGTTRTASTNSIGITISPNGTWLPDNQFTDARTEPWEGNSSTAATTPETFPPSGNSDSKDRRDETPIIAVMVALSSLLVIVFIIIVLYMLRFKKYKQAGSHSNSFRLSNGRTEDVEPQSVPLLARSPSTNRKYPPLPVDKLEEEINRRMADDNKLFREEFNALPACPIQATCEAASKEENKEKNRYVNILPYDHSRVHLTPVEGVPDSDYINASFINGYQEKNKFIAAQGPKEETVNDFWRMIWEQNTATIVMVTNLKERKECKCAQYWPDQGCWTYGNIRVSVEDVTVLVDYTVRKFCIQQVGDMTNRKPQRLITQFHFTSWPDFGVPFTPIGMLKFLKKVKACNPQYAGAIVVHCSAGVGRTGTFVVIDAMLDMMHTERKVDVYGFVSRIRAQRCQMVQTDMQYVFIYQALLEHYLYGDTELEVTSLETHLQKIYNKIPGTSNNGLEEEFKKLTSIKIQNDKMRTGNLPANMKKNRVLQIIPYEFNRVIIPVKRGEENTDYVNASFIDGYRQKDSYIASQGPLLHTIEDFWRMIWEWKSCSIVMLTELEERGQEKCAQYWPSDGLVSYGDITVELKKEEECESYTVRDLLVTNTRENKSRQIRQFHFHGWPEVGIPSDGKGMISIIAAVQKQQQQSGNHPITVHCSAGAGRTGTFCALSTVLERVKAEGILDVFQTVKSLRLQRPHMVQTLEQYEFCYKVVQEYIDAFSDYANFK
Description: as §1, §2

[3] = molecular target: T3, PTP1B (Homo sapiens, UniProt P18031)
T3 construct: The 37 kDa form of PTP1B; from tissue; host or cells: placenta
T3 sequence (P18031 1-321 limits assumed): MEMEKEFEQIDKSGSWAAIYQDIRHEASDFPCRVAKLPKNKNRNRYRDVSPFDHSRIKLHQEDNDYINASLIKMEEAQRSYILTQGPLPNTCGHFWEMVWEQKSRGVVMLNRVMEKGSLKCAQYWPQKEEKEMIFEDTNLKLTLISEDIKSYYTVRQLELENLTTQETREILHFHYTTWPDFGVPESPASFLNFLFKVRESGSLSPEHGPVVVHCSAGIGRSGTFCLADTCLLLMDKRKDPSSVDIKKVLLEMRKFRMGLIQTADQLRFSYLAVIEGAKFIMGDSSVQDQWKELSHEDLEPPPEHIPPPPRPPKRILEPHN
Description: as §1, §2

[4] = molecular target: T4, CD45 (Homo sapiens, UniProt P08575)
T4 construct: CD45 were purified from placenta and spleen, respectively; from tissue; host or cells: spleen
T4 sequence (P08575 26-1306): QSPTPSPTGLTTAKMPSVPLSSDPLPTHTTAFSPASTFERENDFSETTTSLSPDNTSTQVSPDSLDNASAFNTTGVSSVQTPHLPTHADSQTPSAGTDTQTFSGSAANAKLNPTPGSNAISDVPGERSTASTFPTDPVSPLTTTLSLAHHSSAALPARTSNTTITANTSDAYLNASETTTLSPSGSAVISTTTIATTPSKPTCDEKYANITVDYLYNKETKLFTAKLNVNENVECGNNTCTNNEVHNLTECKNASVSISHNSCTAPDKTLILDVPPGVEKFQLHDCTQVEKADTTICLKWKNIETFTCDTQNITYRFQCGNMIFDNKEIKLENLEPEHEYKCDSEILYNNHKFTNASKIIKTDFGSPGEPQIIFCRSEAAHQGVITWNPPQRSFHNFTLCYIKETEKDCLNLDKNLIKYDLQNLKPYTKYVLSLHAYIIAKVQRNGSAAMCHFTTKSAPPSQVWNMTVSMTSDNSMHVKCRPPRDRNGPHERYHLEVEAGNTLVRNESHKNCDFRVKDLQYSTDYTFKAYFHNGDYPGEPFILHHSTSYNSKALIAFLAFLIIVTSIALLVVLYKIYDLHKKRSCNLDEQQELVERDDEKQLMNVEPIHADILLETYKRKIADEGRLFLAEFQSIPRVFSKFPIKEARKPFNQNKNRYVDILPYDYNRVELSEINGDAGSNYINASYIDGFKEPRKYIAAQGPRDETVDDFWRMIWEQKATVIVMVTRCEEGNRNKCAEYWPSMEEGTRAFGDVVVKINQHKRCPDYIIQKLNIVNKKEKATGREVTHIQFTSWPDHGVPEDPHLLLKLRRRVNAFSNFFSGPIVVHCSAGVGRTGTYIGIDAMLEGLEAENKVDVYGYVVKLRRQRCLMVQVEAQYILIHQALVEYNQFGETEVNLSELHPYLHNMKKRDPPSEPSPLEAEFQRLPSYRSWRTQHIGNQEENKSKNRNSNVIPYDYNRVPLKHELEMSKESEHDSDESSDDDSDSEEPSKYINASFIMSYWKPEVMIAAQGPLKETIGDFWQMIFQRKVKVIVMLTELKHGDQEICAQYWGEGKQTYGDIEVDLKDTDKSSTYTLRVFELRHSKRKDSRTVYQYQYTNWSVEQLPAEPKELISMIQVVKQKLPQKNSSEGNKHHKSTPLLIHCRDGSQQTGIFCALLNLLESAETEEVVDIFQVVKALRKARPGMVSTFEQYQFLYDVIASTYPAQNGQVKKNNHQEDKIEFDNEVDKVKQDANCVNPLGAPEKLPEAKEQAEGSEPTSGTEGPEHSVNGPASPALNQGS
Description: as §1, §2

[5] = molecular target: T5, TCΔC11.PTP (Homo sapiens, UniProt P17706)
T5 construct: both the wild type and truncated forms of the T-cell phosphatase; made in house; host or cells: Sf9 cells (baculovirus)
T5 sequence (P17706 1-317 limits assumed): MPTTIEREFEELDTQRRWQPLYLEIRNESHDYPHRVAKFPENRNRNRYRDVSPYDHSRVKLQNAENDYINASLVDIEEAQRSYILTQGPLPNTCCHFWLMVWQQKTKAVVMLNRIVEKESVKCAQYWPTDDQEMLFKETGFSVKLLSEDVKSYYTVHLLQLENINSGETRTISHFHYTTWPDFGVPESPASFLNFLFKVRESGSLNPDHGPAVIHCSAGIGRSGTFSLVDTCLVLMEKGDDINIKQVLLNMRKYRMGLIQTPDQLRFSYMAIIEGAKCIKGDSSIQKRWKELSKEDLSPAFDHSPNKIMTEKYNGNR
Description: as §1, §2

Phosphatase activity in percent of the value obtained in the absence of effectors ([1]; effector 1.0 mM) [%]	Phosphatase activity in percent of the value obtained in the absence of effectors ([1]; effector 3.0 mM) [%]	Phosphatase activity in percent of the value obtained in the absence of effectors ([1]; effector 5.0 mM) [%]	Phosphatase activity in percent of the value obtained in the absence of effectors ([2]; effector 1.0 mM) [%]	Phosphatase activity in percent of the value obtained in the absence of effectors ([2]; effector 3.0 mM) [%]	Phosphatase activity in percent of the value obtained in the absence of effectors ([2]; effector 5.0 mM) [%]	Phosphatase activity in percent of the value obtained in the absence of effectors ([3]; effector 1.0 mM) [%]	Phosphatase activity in percent of the value obtained in the absence of effectors ([3]; effector 3.0 mM) [%]	Phosphatase activity in percent of the value obtained in the absence of effectors ([3]; effector 5.0 mM) [%]	Phosphatase activity in percent of the value obtained in the absence of effectors ([4]; effector 1.0 mM) [%]	Phosphatase activity in percent of the value obtained in the absence of effectors ([4]; effector 3.0 mM) [%]	Phosphatase activity in percent of the value obtained in the absence of effectors ([4]; effector 5.0 mM) [%]	Phosphatase activity in percent of the value obtained in the absence of effectors ([5]; effector 1.0 mM) [%]	Phosphatase activity in percent of the value obtained in the absence of effectors ([5]; effector 3.0 mM) [%]	Phosphatase activity in percent of the value obtained in the absence of effectors ([5]; effector 5.0 mM) [%]	Molecule	Phosphatase activity in percent of the value obtained in the absence of effectors ([2]; effector 1.0 μM) [%]	Phosphatase activity in percent of the value obtained in the absence of effectors ([4]; effector 1.0 μM) [%]	also measured
–	–	–	–	–	–	–	–	–	–	–	–	–	–	–	heparin	19	0	Phosphatase activity in percent of the value obtained in the absence of effectors ([1]; effector 0.01 μM): 8%; Phosphatase activity in percent of the value obtained in the absence of effectors ([1]; effector 0.1 μM): 1%; Phosphatase activity in percent of the value obtained in the absence of effectors ([1]; effector 1.0 μM): 0%; Phosphatase activity in percent of the value obtained in the absence of effectors ([2]; effector 0.01 μM): 82%; Phosphatase activity in percent of the value obtained in the absence of effectors ([2]; effector 0.1 μM): 40%; Phosphatase activity in percent of the value obtained in the absence of effectors ([3]; effector 0.01 μM): 91%; Phosphatase activity in percent of the value obtained in the absence of effectors ([3]; effector 0.1 μM): 0%; Phosphatase activity in percent of the value obtained in the absence of effectors ([3]; effector 1.0 μM): 0%; Phosphatase activity in percent of the value obtained in the absence of effectors ([4]; effector 0.01 μM): 8%; Phosphatase activity in percent of the value obtained in the absence of effectors ([4]; effector 0.1 μM): 0%; Phosphatase activity in percent of the value obtained in the absence of effectors ([5]; effector 0.01 μM): 88%; Phosphatase activity in percent of the value obtained in the absence of effectors ([5]; effector 0.1 μM): 4%; Phosphatase activity in percent of the value obtained in the absence of effectors ([5]; effector 1.0 μM): 0%
119	104	80	115	97	86	139	125	110	96	78	76	142	109	93	O=C(O)CN(CCN(CC(=O)O)CC(=O)O)CC(=O)O [EDTA]	–	–	–
8	–	–	4	–	–	6	–	–	3	–	–	21	–	–	[Zn+2] [Zn^2+]	–	–	Phosphatase activity in percent of the value obtained in the absence of effectors ([1]; effector 0.01 mM): 61%; Phosphatase activity in percent of the value obtained in the absence of effectors ([1]; effector 0.1 mM): 26%; Phosphatase activity in percent of the value obtained in the absence of effectors ([2]; effector 0.01 mM): 99%; Phosphatase activity in percent of the value obtained in the absence of effectors ([2]; effector 0.1 mM): 77%; Phosphatase activity in percent of the value obtained in the absence of effectors ([3]; effector 0.01 mM): 65%; Phosphatase activity in percent of the value obtained in the absence of effectors ([3]; effector 0.1 mM): 17%; Phosphatase activity in percent of the value obtained in the absence of effectors ([4]; effector 0.01 mM): 92%; Phosphatase activity in percent of the value obtained in the absence of effectors ([4]; effector 0.1 mM): 53%; Phosphatase activity in percent of the value obtained in the absence of effectors ([5]; effector 0.01 mM): 61%; Phosphatase activity in percent of the value obtained in the absence of effectors ([5]; effector 0.1 mM): 54%
72	57	60	90	72	59	81	73	71	80	62	72	75	60	58	[Mg+2] [Mg^2+]	–	–	–
–	–	–	–	–	–	–	–	–	–	–	–	–	–	–	[O]=[V]([O-])([O-])[O-] [vanadate]	62	66	Phosphatase activity in percent of the value obtained in the absence of effectors ([2]; effector 10 μM): 4%; Phosphatase activity in percent of the value obtained in the absence of effectors ([2]; effector 100 μM): 0%; Phosphatase activity in percent of the value obtained in the absence of effectors ([4]; effector 10 μM): 17%; Phosphatase activity in percent of the value obtained in the absence of effectors ([4]; effector 100 μM): 4%
